Molecules are shown by their SMILES.

Assay [1] deals with carrageenin-induced edema in the hind paw. Nature of the assay: carrageenin-induced rat food edema test (inhibition of edema formation in the hind paw). The assay is classed as in vivo, male albino rats. The settings on record: rat, oral. The protocol: A. Winter et al., Proc. Soc. Exp. Biol. Med., Vol. 111, p.
A. Winter et al., as earlier reported in the Proceedings of the Society of Experimental Biology and Medicine, Vol. 111, p. 544 (1962). In this test, anti-inflammatory activity is determined as the percent inhibition of edema formation in the hind paw of male albino rats (weighing 150-190 g.) in response to a sub-plantar injection of carrageenin. The carrageenin is injected as a 1% aqueous suspension (0.05 ml.) one hour after oral administration of the drug, which is normally given in the form of an aqueous solution. Edema formation is then assessed three hours after the carrageenin injection by measuring the volume of the injected paw initially as well as at the three-hour mark. The increase in volume three hours after carrageenin injection constitutes the individual response.
The following N-(2-thiazolyl)amides were tested for anti-inflammatory activity in rats, using the standard carrageen-ininduced rat food edema test, according to the procedure essentially described by C. A. Winter et al., as first reported in the Proceedings of the Society for Experimental Biology and Medicine, Vol. 111, p. 544 (1962). […]
For orientation: The carrageenan paw model is a standard test of acute inflammation.

A further assay deals with murine thymus cells. Nature of the assay: lymphocyte stimulation assay (LSA), in vitro lymphocyte proliferation of murine thymus cells cultured in the presence of Concanavalin A. Conditions: Con A present, 48 hours at 37° C.; for LSA Activity: in vitro, score at drug level with maximum activity. The assay is classed as cell-based, male C57B1/6 mice. The text has this: On the other hand, the activity of the compounds of the present invention, as immunoregulator agents, is based on a study of their ability to stimulate, in vitro, the lymphocyte proliferation of murine thymus cells cultured in the presence of Concanavalin A (Con A) by employing the general evaluation procedure of V. J. Merluzzi et al., as described in the Journal of Clinical and Experimental Immunology, Vol. 22, p. 486 (1975).
486 (1975). The cells were derived from male C57B1/6 mice of from 6-8 weeks age, purchased from the Jackson Laboratories of Bar Harbor, Maine and the Con A was obtained from Sigma Chemicals of St. Louis, Missouri. Each cell culture (consisting of 0.10 ml. thymus cells stock solution, 0.05 ml. of Con A stock solution and 0.05 ml. of drug solution) was performed in quadruplicate and cellular proliferation was measured, after 48 hours of incubation at 37° C., by pulsing each culture with ^3 H-thymidine (0.01 ml. of specific activity 1.9 C/mM, obtained from Schwarz-Mann, Inc. of Orangeburg, N.Y.) and then determining the incorporation of ^3 H-thymidine into cellular desoxyribonucleic acid (DNA) by an assessment of radioactivity using a liquid scintillation counter.

Where [2] appears, read: 33 mg./kg., three hours after carrageenin injection.

For `Cl.O=C(CNCc1ccccc1)Nc1nccs1` [N-(2-thiazolyl)-α-benzylaminoacetamide hydrochloride], the “% Inhibition of edema formation (swelling)” value in assay [1] (1.0 mg./kg.) is on record as 35%. Moreover, the “% Inhibition of edema formation” value is given as 47% in assay [1] (3.3 mg./kg.) and 54% in assay [1] (10 mg./kg.). As for `Cc1csc(NC(=O)C(N)Cc2ccccc2)n1` (stereo not drawn) [X=CH3, R1=C6 H5 CH2, R2=hydrogen, N-(4-methyl-2-thiazolyl)-α-amino-β-phenylpropionamide], in the assay with murine thymus cells, the “LSA Activity” value is reported as “+++ (those having an activity greater than levamisole (27,000±1,000 cpm) were scored as +++)”. Take `Cc1csc(NC(=O)C(C)N)n1` (stereo not drawn) [X=CH3, R1=CH3, R2=hydrogen, N-(4-methyl-2-thiazolyl)-α-aminopropionamide]: the “LSA Activity” value with murine thymus cells was “+++ (those having an activity greater than levamisole (27,000±1,000 cpm) were scored as +++)”. On to `Cc1csc(NC(=O)CNCc2ccccc2)n1` [X=CH3, R1=H, R2=benzyl, N-(4-methyl-2-thiazolyl)-α-benzylaminoacetamide], for which the “LSA Activity” value in the assay on murine thymus cells is on record as “+++ (those having an activity greater than levamisole (27,000±1,000 cpm) were scored as +++)”.

With `CNCC(=O)Nc1nc(C)cs1` [X=CH3, R1=H, R2=methyl, N-(4-methyl-2-thiazolyl)-α-methylaminoacetamide], the “LSA Activity” value with murine thymus cells is “+++ (those having an activity greater than levamisole (27,000±1,000 cpm) were scored as +++)”. Also, the “% Inhibition of edema formation” value in assay [1] (setting [2]) amounted to 53%. As to `Cc1csc(NC(=O)CNCCc2ccccc2)n1` [X=CH3, R1=H, R2=β-phenylethyl, N-(4-methyl-2-thiazolyl)-α-(β-phenylethylamino)acetamide], the “LSA Activity” value in the assay with murine thymus cells is “+++ (those having an activity greater than levamisole (27,000±1,000 cpm) were scored as +++)”. The same measure, in the same setting: next, `Cc1csc(NC(=O)C(N)C(C)C)n1` (stereo not drawn) [X=CH3, R1=iso-C3 H7, R2=hydrogen, N-(4-methyl-2-thiazolyl)-α-aminoisovaleramide]: “+++ (those having an activity greater than levamisole (27,000±1,000 cpm) were scored as +++)”; `Cc1csc(NC(=O)C2CCCCN2)n1` (stereo not shown) [X=CH3, R=2-piperidyl, N-(4-methyl-2-thiazolyl)piperidine-2-carboxamide]: “+++ (those having an activity greater than levamisole (27,000±1,000 cpm) were scored as +++)”.

As for `CC(N)C(=O)Nc1nccs1` (stereo not drawn) [X=H, R1=CH3, R2=hydrogen, N-(2-thiazolyl)-α-aminopropionamide], the “LSA Activity” value in the assay on murine thymus cells is “+++ (those having an activity greater than levamisole (27,000±1,000 cpm) were scored as +++)”. For the compound `CNC(C)C(=O)Nc1nccs1` (stereo not drawn) [X=H, R1=CH3, R2=methyl, N-(2-thiazolyl)-α-methylaminopropionamide], the “LSA Activity” value with murine thymus cells is “+++ (those having an activity greater than levamisole (27,000±1,000 cpm) were scored as +++)”. For the compound `O=C(CNCc1ccco1)Nc1nccs1` [X=H, R1=H, R2=2-furfuryl, N-(2-thiazolyl)-α-(2-furfurylamino)acetamide], in the assay on murine thymus cells, the “LSA Activity” value was “++ (those equal to levamisole (22,000±900 cpm) were scored as ++)”. `O=C(CNCC1CCCO1)Nc1nccs1` (stereo not drawn) [X=H, R1=H, R2=2-tetrahydrofurfuryl, N-(2-thiazolyl)-α-(2-tetrahydrofurfurylamino)acetamide]: the “LSA Activity” value with murine thymus cells is listed as “++ (those equal to levamisole (22,000±900 cpm) were scored as ++)”. In the case of `O=C(CNCc1cccs1)Nc1nccs1` [X=H, R1=H, R2=2-thenyl, N-(2-thiazolyl)-α-(2-thenylamino)acetamide], the “LSA Activity” value in the assay with murine thymus cells is “+++ (those having an activity greater than levamisole (27,000±1,000 cpm) were scored as +++)”. Turning to `O=C(CNCc1ccc2c(c1)OCO2)Nc1nccs1` [X=H, R1=H, R2=3,4-methylenedioxybenzyl, N-(2-thiazolyl)-α-(3,4-methylenedioxybenzylamino)acetamide], the “LSA Activity” value in the assay with murine thymus cells is on record as “++ (those equal to levamisole (22,000±900 cpm) were scored as ++)”. Regarding `C=CCNCC(=O)Nc1nccs1` [X=H, R1=H, R2=allyl, N-(2-thiazolyl)-α-allylaminoacetamide], in the assay on murine thymus cells, the “LSA Activity” value was “++ (those equal to levamisole (22,000±900 cpm) were scored as ++)”. For the compound `O=C(CNCC1CCCCC1)Nc1nccs1` [X=H, R1=H, R2=cyclohexylmethyl, N-(2-thiazolyl)-α-cyclohexylmethylaminoacetamide], the “LSA Activity” value with murine thymus cells is “++ (those equal to levamisole (22,000±900 cpm) were scored as ++)”. On the same count and under the same terms, next, `O=C(CNC1CCCCCCC1)Nc1nccs1` [X=H, R1=H, R2=cyclooctyl, N-(2-thiazolyl)-α-cyclooctylaminoacetamide]: “++ (those equal to levamisole (22,000±900 cpm) were scored as ++)”; `CCNCC(=O)Nc1nccs1` [X=H, R1=H, R2=ethyl, N-(2-thiazolyl)-α-ethylaminoacetamide]: “+++ (those having an activity greater than levamisole (27,000±1,000 cpm) were scored as +++)”; `NCC(=O)Nc1nccs1` [X=H, R1=H, R2=hydrogen, N-(2-thiazolyl)-α-aminoacetamide]: “++ (those equal to levamisole (22,000±900 cpm) were scored as ++)”. Take `CNCC(=O)Nc1nccs1` [X=H, R1=H, R2=methyl, N-(2-thiazolyl)-α-methylaminoacetamide]: the “LSA Activity” value in the assay on murine thymus cells is listed as “+++ (those having an activity greater than levamisole (27,000±1,000 cpm) were scored as +++)”. Further, the “% Inhibition of edema formation” value in assay [1] (setting [2]) came to 54%. As to `CCCCNCC(=O)Nc1nccs1` [X=H, R1=H, R2=n-butyl, N-(2-thiazolyl)-α-(n-butylamino)acetamide], in the assay on murine thymus cells, the “LSA Activity” value is “++ (those equal to levamisole (22,000±900 cpm) were scored as ++)”. For the compound `CCCNCC(=O)Nc1nccs1` [X=H, R1=H, R2=n-propyl, N-(2-thiazolyl)-α-(n-propylamino)acetamide], the “LSA Activity” value in the assay with murine thymus cells was “++ (those equal to levamisole (22,000±900 cpm) were scored as ++)”. On the same count and under the same terms, next, `O=C(CNCc1ccc(Cl)cc1)Nc1nccs1` [X=H, R1=H, R2=p-chlorobenzyl, N-(2-thiazolyl)-α-(p-chlorobenzylamino)acetamide]: “++ (those equal to levamisole (22,000±900 cpm) were scored as ++)”. For the compound `O=C(CNCc1ccc(F)cc1)Nc1nccs1` [X=H, R1=H, R2=p-fluorobenzyl, N-(2-thiazolyl)-α-(p-fluorobenzylamino)acetamide], in the assay with murine thymus cells, the “LSA Activity” value is “+++ (those having an activity greater than levamisole (27,000±1,000 cpm) were scored as +++)”. Besides, the “% Inhibition of edema formation” value in assay [1] (setting [2]) is listed as 48%.

For the compound `COc1ccc(CNCC(=O)Nc2nccs2)cc1` [X=H, R1=H, R2=p-methoxybenzyl, N-(2-thiazolyl)-α-(p-methoxybenzylamino)acetamide], the “LSA Activity” value in the assay with murine thymus cells is recorded as “+++ (those having an activity greater than levamisole (27,000±1,000 cpm) were scored as +++)”. In the case of `Cc1ccc(CNCC(=O)Nc2nccs2)cc1` [X=H, R1=H, R2=p-methylbenzyl, N-(2-thiazolyl)-α-(p-methylbenzylamino)acetamide], the “LSA Activity” value in the assay with murine thymus cells is listed as “+ (those superior to Con A activity but less than levamisole (10,000±700 cpm) were scored as +)”. For `O=C(CNCc1ccc(C(F)(F)F)cc1)Nc1nccs1` [X=H, R1=H, R2=p-trifluoromethylbenzyl], the “LSA Activity” value with murine thymus cells was “++ (those equal to levamisole (22,000±900 cpm) were scored as ++)”.

On to `O=C(CNCCc1ccccc1)Nc1nccs1` [X=H, R1=H, R2=β-phenylethyl, N-(2-thiazolyl)-α-(β-phenylethylamino)acetamide], for which the “LSA Activity” value in the assay with murine thymus cells is recorded as “++ (those equal to levamisole (22,000±900 cpm) were scored as ++)”. Moreover, the “% Inhibition of edema formation” value in assay [1] (setting [2]) was 53%. On to `CC(C)C(N)C(=O)Nc1nccs1` (stereo not drawn) [X=H, R1=iso-C3 H7, R2=hydrogen, N-(2-thiazolyl)-α-aminoisovaleramide], for which the “LSA Activity” value with murine thymus cells is reported as “++ (those equal to levamisole (22,000±900 cpm) were scored as ++)”. With `O=C(Nc1nccs1)C1CCCCN1` (stereo not shown) [X=H, R=2-piperidyl, N-(2-thiazolyl)piperidine-2-carboxamide], in the assay with murine thymus cells, the “LSA Activity” value was “+++ (those having an activity greater than levamisole (27,000±1,000 cpm) were scored as +++)”. Also, the “% Inhibition of edema formation” value in assay [1] (setting [2]) was 55%.

Regarding `O=C(Nc1nccs1)C1CCCN1` (stereo not shown) [X=H, R=2-pyrrolidinyl, N-(2-thiazolyl)pyrrolidine-2-carboxamide], the “LSA Activity” value in the assay with murine thymus cells is listed as “+++ (those having an activity greater than levamisole (27,000±1,000 cpm) were scored as +++)”. Besides, the “% Inhibition of edema formation” value in assay [1] (setting [2]) was 48%. In the case of `c1ccc([C@H]2CN3CCSC3=N2)cc1` [levamisole, reference compound], the “3H-thymidine incorporated (average counts per minute)” value with murine thymus cells (standard compound) is recorded as 22,000±900 cpm.

The values above are taken from patent US4217355A, “Amide therapeutic agents” (Pfizer Inc., priority 1978, dated 1980).
